Assay results reported in US20170281710A1, “USE OF INHIBITORS OF BINDING BETWEEN A PAR-1 RECEPTOR AND ITS LIGANDS FOR THE TREATMENT OF GLIOMA” (University of Rochester, priority 2013, published 2017).
“Also recorded” adds a separate entry of the source.

Legend:
[1] = tested on: normal astrocytes derived from the fetal human brain; assay: growth of normal fetal astrocytes in vitro; format: cell-based; conditions: for concentrations at which growth of normal fetal astrocytes is slightly decreased / effect on growth of normal fetal astrocytes: 4 days after administration
[2] = tested on: breast carcinoma cells; conditions: literature; cited from earlier work
[3] = tested on: adherent glioma cells (U87, U251); assay: in vitro expansion of adherent glioma cells cultured with 10% serum; format: cell-based, human; conditions: for effect on growth / number of adherent glioma cells (U87, U251): 4 days after administration, vs DMSO vehicle; for concentration at which a significant decrease in number of adherent glioma cells was observed: escalating doses
Method: (§1) Dabigatran etexilate (Pradaxa) was obtained as 150 mg capsules from Boehringer Ingelheim (Ingelheim, Germany) for in vivo experiments. Each capsule was freshly dissolved in 4 ml of acidic water to yield 37.5 mg/ml. Dabigatran etexilate was dosed depending of the body weight of the mouse, twice a day, using oral gavage. For in vitro analysis, the chemical compound dabigatran etexilate (BIER-1048) was purchased from Cedarlane USA (S2154-5 mg) and dissolved in dimethylsulfoxide (DMSO) following manufacturer's instructions.
(§2) The selective PAR-1 antagonist SCH79797 was purchased from Tocris Bioscience (Ellisville, Mo., USA) and dissolved in dimethylsulfoxide (DMSO) following manufacturer's instructions. The selective oral PAR-1 inhibitor SCH 530348 (Vorapaxar) was purchased from Axon medchem (Axon 1755) and reconstituted following manufacturer's instructions.
(§3) The various physiological and pathophysiological effects exerted by PAR-1 activation have led to the development of multiple selective PAR-1 antagonists over the years (Garcia-Lopez et al., “Thrombin-Activated Receptors: Promising Targets for Cancer Therapy?” Curr Med Chem 17:109-128 (2010), which is hereby incorporated by reference in its entirety). […] On that basis, it was further asked whether pharmacological inhibition of PAR-1 can slow the growth of glioma cells and A2B5^+ TPCs. Adherent glioma cells grown in 10% Serum (U87, U251) and A2B5^+ TPCs derived from primary GBM cell lines cultured in SFM were subjected to escalating doses of the PAR-1 antagonists SCH-79797.
(§4) Indeed, SCH-530348 represents currently the most advanced and orally available specific PAR-1 antagonist, and has been evaluated in two large phase III clinical trials in patients with cardiovascular disease. […] To examine its effect on glioma cells and TPCs, SCH-530348 was administrated with escalating doses to glioma cells following the same paradigm previously described. […] Importantly, normal adult astrocytes were not affected by SCH-530348 administration (FIG. 6C).
(§5) Given the availability of already approved and relatively safe drugs by which the thrombin may be antagonized, the effect of pharmacological inhibition of thrombin using the oral inhibitor dabigatran etexilate (dabigatran) in vitro was next examined. Dabigatran (marketed as Pradaxa) is an oral inhibitor of thrombin, approved for use in patients with or at risk of thrombotic disorders (Lee and Ansell, “Direct Thrombin Inhibitors,” Br J Clin Pharmacol 72:581-592 (2011); Stangier, “Clinical Pharmacokinetics and Pharmacodynamics of the Oral Direct Thrombin Inhibitor Dabigatran Etexilate,” Clin Pharmacokinet 47:285-295 (2008), which are hereby incorporated by reference in their entirety). […] To examine whether dabigatran treatment might suppress the growth of glial neoplasms, glioma cells and TPCs were treated with escalating doses of dabigatran and counted 4 days after drug administration.

[4] = tested on: A2B5+ glioma TPCs (GCL) isolated from GBM-derived cell lines; assay: in vitro expansion of A2B5+ glioma TPCs (GCL), cell count after escalating doses; format: cell-based, human; conditions: for concentration at which a significant decrease in number of A2B5+ TPCs was observed: escalating doses, vs vehicle; for effect on growth / number (in vitro expansion) of A2B5+ glioma TPCs: serum-free media with FGF, EGF, PDGF, 4 days after administration, vs DMSO vehicle
Method: After dissociation, unsorted and A2B5 selected primary cells derived from tumor samples were seeded in a 6 well cell suspension plate at 100,000-200,000 cells/ml in DMEM/F12/N1 media containing FGF, EGF and PDGF (20 ng/ml) as previously described (Nunes et al., “Identification and Isolation of Multipotential Neural Progenitor Cells from the Subcortical White Matter of the Adult Human Brain,” Nat Med 9:439-447 (2003), which is hereby incorporated by reference in their entirety). Growth factors and media were renewed 3 times per week. […] The cells were tumorigenic in vivo after transplantation into the brains of immunodeficient mice, in which they generated tumors that recapitulated the histological and phenotypic features of the parental GBM.
as §1, §2, §3, §4, §5

[5] = tested on: A2B5+ glioma TPCs (GCL) subcutaneous xenograft; assay: subcutaneous heterotopic A2B5+ glioma TPC xenograft, tumor volume; format: in vivo, immunodeficient NOG mice; conditions: 37.5 mg/kg twice daily, oral gavage, starting 11 days post-subcutaneous injection, NOG mice
Method: as §1
Glioma cells and/or A2B5^+ TPCs (1-4E^+06 cells/animal) were collected, resuspended in 75 μl of media, and mixed (1:1) with Matrigel (9.8 mg/ml), prior to subcutaneous injection (150 μl, final volume) into the flanks of immunodeficient NOG mice (5-8 weeks) (1-4E^+06 cells/animal). Subcutaneous tumor growth was measured every other day morphometrically using vernier calipers, and tumor volumes were estimated according to the formula a^2b/2, where a and b are the shorter and longer diameters of the tumor, respectively. […] The remaining mice were gavaged at the same times with vehicle control (acidic water). […]
To translate these findings into a clinically relevant approach, the anti-tumor activity of dabigatran was further evaluated in vivo. […] Tumor volume was then measured every other day using vernier calipers. […]

[6] = tested on: normal astrocytes derived from the adult human brain; assay: growth of normal adult astrocytes in vitro; format: cell-based; conditions: 4 days after administration
[7] = tested on: angiogenesis; conditions: literature; cited from earlier work
[8] = tested on: several human and mouse cell lines; conditions: literature; cited from earlier work
[9] = literature; cited from earlier work
[10] = stable patients with a history of myocardial infarction; literature; cited from earlier work

CCCCCCOC(=O)NC(=N)c1ccc(NCc2nc3cc(C(=O)N(CCC(=O)OCC)c4ccccn4)ccc3n2C)cc1 [dabigatran etexilate]
concentrations at which growth of normal fetal astrocytes is slightly decreased [1]: > 0.5 µM | effect on growth of normal fetal astrocytes ([1]; listed as Dabigatran etexilate): slightly decreases the growth of normal fetal astrocytes | effect on growth of normal fetal astrocytes ([1]; listed as dabigatran): not significantly affected | breast cancer progression [2]: reduce breast cancer progression | invasiveness of breast carcinoma cells in mice [2]: inhibits the invasiveness of breast carcinoma cells | effect on growth / number of adherent glioma cells (U87, U251) ([3]; listed as Dabigatran etexilate): significantly decreases the number of GCL and glioma cells in a dose dependent manner | effect on growth / number of adherent glioma cells (U87, U251) ([3]; listed as dabigatran): decreased in vitro expansion in a dose dependent manner | concentration at which a significant decrease in number of adherent glioma cells was observed [3]: ≥ 10 µM | concentration at which a significant decrease in number of A2B5+ TPCs was observed [4]: 5 µM | effect on growth / number (in vitro expansion) of A2B5+ glioma TPCs [4]: suppressed the growth and proliferation of glioma TPCs in vitro | effect on growth / number (in vitro expansion) of A2B5+ glioma TPCs ([4]; listed as Dabigatran etexilate): significantly decreases the number of GCL and glioma cells in a dose dependent manner | effect on growth / number (in vitro expansion) of A2B5+ glioma TPCs ([4]; listed as dabigatran): decreased in vitro expansion in a dose dependent manner; also recorded: potent inhibitors of glioma growth in vitro | effect on tumor volumes compared to vehicle controls [5]: significant reduction in tumor volumes; also recorded: significantly suppressed glioma growth; also recorded: significantly reduced tumor volumes | effect on tumor volumes compared to vehicle controls ([5]; listed as Pradaxa): significantly reduce the tumor volumes | effect on growth of normal adult astrocytes ([6]; listed as Dabigatran etexilate): did not affect the growth of normal adult astrocytes | effect on growth of normal adult astrocytes ([6]; listed as dabigatran): not significantly affected

CC(C)c1ccc(Cn2ccc3c4c(N)nc(NC5CC5)nc4ccc32)cc1 [SCH79797, N3-Cyclopropyl-7-[[4-(1-Methylethyl)Phenyl]Methyl]-7H-Pyrrolo[3,2-f]Quinazoline-1,3-Diamine]
effect on growth of normal fetal astrocytes [1]: did not affect the growth of normal fetal and adult astrocytes | effect on growth of normal fetal astrocytes ([1]; listed as SCH-79797): able to slow the growth of normal fetal astrocytes | concentration at which a significant decrease in number of fetal astrocytes was observed ([1]; escalating doses): ≥ 0.5 µM | effect on growth / number of adherent glioma cells (U87, U251) [3]: significantly decreases the number of GCL and glioma cells in a dose dependent manner | effect on growth / number of adherent glioma cells (U87, U251) ([3]; listed as SCH-79797): significant concentration dependent inhibition of cell growth | concentration at which a significant decrease in number of adherent glioma cells was observed [3]: ≥ 0.1 µM | anti-angiogenic activity in vivo [7]: potent anti-angiogenic in vivo | concentration at which a significant decrease in number of A2B5+ TPCs was observed [4]: ≥ 0.1 µM | effect on growth / number (in vitro expansion) of A2B5+ glioma TPCs [4]: potent inhibitors of glioma growth in vitro; also recorded: suppressed the growth and proliferation of glioma TPCs in vitro; also recorded: significantly decreases the number of GCL and glioma cells in a dose dependent manner | effect on growth / number (in vitro expansion) of A2B5+ glioma TPCs ([4]; listed as SCH-79797): significant concentration dependent inhibition of cell growth | effect on proliferation, migration and growth of several human and mouse cell lines [8]: showed anti-proliferative effects, blocked cell migration and growth | effect on growth of normal adult astrocytes [6]: did not affect the growth of normal fetal and adult astrocytes | effect on growth of normal adult astrocytes ([6]; listed as SCH-79797): no significant differences

CCOC(=O)N[C@@H]1CC[C@@H]2[C@@H](C1)C[C@H]1C(=O)O[C@H](C)[C@H]1[C@H]2/C=C/c1ccc(-c2cccc(F)c2)cn1 [SCH530348, Vorapaxar]
concentrations at which growth of normal fetal astrocytes is slightly decreased [1]: > 0.5 µM | effect on growth of normal fetal astrocytes [1]: slightly decreases the growth of normal fetal astrocytes | oral bioavailability [9]: excellent | safety [9]: excellent | effect on growth / number of adherent glioma cells (U87, U251) [3]: significantly decreases the number of GCL and glioma cells in a dose dependent manner | effect on growth / number of adherent glioma cells (U87, U251) ([3]; listed as SCH-530348): significant decrease in the number of glioma cells | concentration at which a significant decrease in number of adherent glioma cells was observed [3]: 25 µM | concentration at which a significant decrease in number of A2B5+ TPCs was observed [4]: ≥ 5 µM | effect on growth / number (in vitro expansion) of A2B5+ glioma TPCs [4]: potent inhibitors of glioma growth in vitro; also recorded: suppressed the growth and proliferation of glioma TPCs in vitro; also recorded: significantly decreases the number of GCL and glioma cells in a dose dependent manner | effect on growth / number (in vitro expansion) of A2B5+ glioma TPCs ([4]; listed as SCH-530348): significantly reduced the growth | effect on growth of normal adult astrocytes [6]: did not affect the growth of normal adult astrocytes | effect on growth of normal adult astrocytes ([6]; listed as SCH-530348): not affected | major cardiovascular thrombotic events [10]: significantly reduced major cardiovascular thrombotic events
